What was measured:
Assay in all cases: KINOMEscan
Format in all cases: binding
Conditions in all cases: 35 at 1 µM; read-out: % inhibition
IRAK3 = biological target: T1, IRAK3 (Homo sapiens, UniProt Q9Y616)
T1 construct: purchased Eurofins DiscoverX (KINOMEscan)
Method: (§1) KinomeScan Assay on 35 was performed as previously described at EuroFins DiscoverX (Fremont, CA, USA).

CAMKK2 = biological target: T2, CAMKK2 (Homo sapiens, UniProt Q96RR4)
T2 construct: purchased Eurofins DiscoverX (KINOMEscan)
Method: as §1

IKK-epsilon = biological target: T3, IKK-epsilon (Homo sapiens, UniProt Q14164)
T3 construct: purchased Eurofins DiscoverX (KINOMEscan)
Method: as §1

DRAK1 = biological target: T4, DRAK1 (Homo sapiens, UniProt Q9UEE5)
T4 construct: purchased Eurofins DiscoverX (KINOMEscan)
Method: as §1

PAK4 = biological target: T5, PAK4 (Homo sapiens, UniProt O96013)
T5 construct: purchased Eurofins DiscoverX (KINOMEscan)
Method: as §1

KIT = biological target: T6, KIT (Homo sapiens, UniProt P10721)
T6 construct: purchased Eurofins DiscoverX (KINOMEscan)
Method: as §1

PIK3CA(E542K) = biological target: T7, PIK3CA(E542K) (Homo sapiens, UniProt P42336, E542K)
T7 construct: purchased Eurofins DiscoverX (KINOMEscan)
Method: as §1

CLK2 = biological target: T8, CLK2 (Homo sapiens, UniProt P49760)
T8 construct: purchased Eurofins DiscoverX (KINOMEscan)
Method: as §1

PAK1 = biological target: T9, PAK1 (Homo sapiens, UniProt Q13153)
T9 construct: purchased Eurofins DiscoverX (KINOMEscan)
Method: as §1

ROCK2 = biological target: T10, ROCK2 (Homo sapiens, UniProt O75116)
T10 construct: purchased Eurofins DiscoverX (KINOMEscan)
Method: as §1

PDGFRA = biological target: T11, PDGFRA (Homo sapiens, UniProt P16234)
T11 construct: purchased Eurofins DiscoverX (KINOMEscan)
Method: as §1

PFTK1 = biological target: T12, PFTK1 (Homo sapiens, UniProt O94921)
T12 construct: purchased Eurofins DiscoverX (KINOMEscan)
Method: as §1

NDR1 = biological target: T13, NDR1 (Homo sapiens, UniProt Q15208)
T13 construct: purchased Eurofins DiscoverX (KINOMEscan)
Method: as §1

PIM2 = biological target: T14, PIM2 (Homo sapiens, UniProt Q9P1W9)
T14 construct: purchased Eurofins DiscoverX (KINOMEscan)
Method: as §1

NIK = biological target: T15, NIK (Homo sapiens, UniProt Q99558)
T15 construct: purchased Eurofins DiscoverX (KINOMEscan)
Method: as §1

JNK3 = biological target: T16, JNK3 (Homo sapiens, UniProt P53779)
T16 construct: purchased Eurofins DiscoverX (KINOMEscan)
Method: as §1

NEK9 = biological target: T17, NEK9 (Homo sapiens, UniProt Q8TD19)
T17 construct: purchased Eurofins DiscoverX (KINOMEscan)
Method: as §1

VRK2 = biological target: T18, VRK2 (Homo sapiens, UniProt Q86Y07)
T18 construct: purchased Eurofins DiscoverX (KINOMEscan)
Method: as §1

BMX = biological target: T19, BMX (Homo sapiens, UniProt P51813)
T19 construct: purchased Eurofins DiscoverX (KINOMEscan)
Method: as §1

CHEK1 = biological target: T20, CHEK1 (Homo sapiens, UniProt O14757)
T20 construct: purchased Eurofins DiscoverX (KINOMEscan)
Method: as §1

MET(Y1235D) = biological target: T21, MET(Y1235D) (Homo sapiens, UniProt P08581, Y1235D)
T21 construct: purchased Eurofins DiscoverX (KINOMEscan)
Method: as §1

PRKD2 = biological target: T22, PRKD2 (Homo sapiens, UniProt Q9BZL6)
T22 construct: purchased Eurofins DiscoverX (KINOMEscan)
Method: as §1

PRKR = biological target: T23, PRKR (Homo sapiens, UniProt P19525)
T23 construct: purchased Eurofins DiscoverX (KINOMEscan)
Method: as §1

IRAK4 = biological target: T24, IRAK4 (Homo sapiens, UniProt Q9NWZ3)
T24 construct: purchased Eurofins DiscoverX (KINOMEscan)
Method: as §1

[1] = biological target: T25, ABL1(T315I)-nonphosphorylated (Homo sapiens, UniProt P00519, T315I)
T25 construct: purchased Eurofins DiscoverX (KINOMEscan)
Method: as §1

YANK2 = biological target: T26, YANK2 (Homo sapiens, UniProt Q9NY57)
T26 construct: purchased EuroFins DiscoverX (Fremont, CA, USA)
Method: as §1

[2] = biological target: T27, TYK2(JH2domain-pseudokinase) (Homo sapiens, UniProt P29597)
T27 construct: TYK2(JH2domain-pseudokinase); purchased Eurofins DiscoverX (KINOMEscan)
Method: as §1

CDK4 = biological target: T28, CDK4 (Homo sapiens, UniProt P11802)
T28 construct: purchased Eurofins DiscoverX (KINOMEscan)
Method: as §1

PIK3CA(E545A) = biological target: T29, PIK3CA(E545A) (Homo sapiens, UniProt P42336, E545A)
T29 construct: purchased Eurofins DiscoverX (KINOMEscan)
Method: as §1

ABL2 = biological target: T30, ABL2 (Homo sapiens, UniProt P42684)
T30 construct: purchased Eurofins DiscoverX (KINOMEscan)
Method: as §1

TSSK1B = biological target: T31, TSSK1B (Homo sapiens, UniProt Q9BXA7)
T31 construct: purchased Eurofins DiscoverX (KINOMEscan)
Method: as §1

YANK1 = biological target: T32, YANK1 (Homo sapiens, UniProt Q8WU08)
T32 construct: purchased EuroFins DiscoverX (Fremont, CA, USA)
Method: as §1

MEK3 = biological target: T33, MEK3 (Homo sapiens, UniProt P46734)
T33 construct: purchased Eurofins DiscoverX (KINOMEscan)
Method: as §1

ALK(C1156Y) = biological target: T34, ALK(C1156Y) (Homo sapiens, UniProt Q9UM73, C1156Y)
T34 construct: purchased Eurofins DiscoverX (KINOMEscan)
Method: as §1

CAMK2G = biological target: T35, CAMK2G (Homo sapiens, UniProt Q13555)
T35 construct: purchased Eurofins DiscoverX (KINOMEscan)
Method: as §1

HIPK4 = biological target: T36, HIPK4 (Homo sapiens, UniProt Q8NE63)
T36 construct: purchased Eurofins DiscoverX (KINOMEscan)
Method: as §1

CLK4 = biological target: T37, CLK4 (Homo sapiens, UniProt Q9HAZ1)
T37 construct: purchased Eurofins DiscoverX (KINOMEscan)
Method: as §1

TLK1 = biological target: T38, TLK1 (Homo sapiens, UniProt Q9UKI8)
T38 construct: purchased Eurofins DiscoverX (KINOMEscan)
Method: as §1

KIT(D816V) = biological target: T39, KIT(D816V) (Homo sapiens, UniProt P10721, D816V)
T39 construct: purchased Eurofins DiscoverX (KINOMEscan)
Method: as §1

BMPR2 = biological target: T40, BMPR2 (Homo sapiens, UniProt Q13873)
T40 construct: purchased Eurofins DiscoverX (KINOMEscan)
Method: as §1

CSNK1G1 = biological target: T41, CSNK1G1 (Homo sapiens, UniProt Q9HCP0)
T41 construct: purchased Eurofins DiscoverX (KINOMEscan)
Method: as §1

FGFR1 = biological target: T42, FGFR1 (Homo sapiens, UniProt P11362)
T42 construct: purchased Eurofins DiscoverX (KINOMEscan)
Method: as §1

T41 sequence (Q9HCP0 whole entry): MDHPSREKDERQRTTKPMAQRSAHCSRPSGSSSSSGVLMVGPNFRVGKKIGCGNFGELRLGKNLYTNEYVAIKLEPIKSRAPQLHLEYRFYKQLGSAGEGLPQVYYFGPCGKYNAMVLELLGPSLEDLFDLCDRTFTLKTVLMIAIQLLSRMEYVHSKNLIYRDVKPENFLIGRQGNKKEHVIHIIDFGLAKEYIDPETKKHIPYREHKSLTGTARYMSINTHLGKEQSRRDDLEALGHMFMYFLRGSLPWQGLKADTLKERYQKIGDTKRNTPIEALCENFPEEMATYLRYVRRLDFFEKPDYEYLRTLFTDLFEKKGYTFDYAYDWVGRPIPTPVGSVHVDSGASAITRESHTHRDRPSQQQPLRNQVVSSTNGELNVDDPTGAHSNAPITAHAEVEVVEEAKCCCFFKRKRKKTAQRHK
T1 sequence (Q9Y616 whole entry): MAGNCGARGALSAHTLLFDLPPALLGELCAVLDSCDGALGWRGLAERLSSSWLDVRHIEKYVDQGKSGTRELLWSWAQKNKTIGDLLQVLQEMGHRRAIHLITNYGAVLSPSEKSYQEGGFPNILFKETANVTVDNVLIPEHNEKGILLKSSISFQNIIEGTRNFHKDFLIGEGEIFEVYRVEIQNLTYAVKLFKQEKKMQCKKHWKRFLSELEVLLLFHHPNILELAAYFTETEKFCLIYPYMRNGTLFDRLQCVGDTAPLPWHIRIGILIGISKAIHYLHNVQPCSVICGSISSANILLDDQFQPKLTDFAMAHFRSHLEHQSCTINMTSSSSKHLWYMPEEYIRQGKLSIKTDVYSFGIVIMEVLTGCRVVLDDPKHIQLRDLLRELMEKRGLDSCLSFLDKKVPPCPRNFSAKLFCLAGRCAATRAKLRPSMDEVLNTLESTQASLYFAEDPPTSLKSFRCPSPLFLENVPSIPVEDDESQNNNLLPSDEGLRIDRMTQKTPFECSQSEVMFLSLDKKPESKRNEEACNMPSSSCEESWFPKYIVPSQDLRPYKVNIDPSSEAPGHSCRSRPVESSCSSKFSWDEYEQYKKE
T26 sequence (Q9NY57 whole entry): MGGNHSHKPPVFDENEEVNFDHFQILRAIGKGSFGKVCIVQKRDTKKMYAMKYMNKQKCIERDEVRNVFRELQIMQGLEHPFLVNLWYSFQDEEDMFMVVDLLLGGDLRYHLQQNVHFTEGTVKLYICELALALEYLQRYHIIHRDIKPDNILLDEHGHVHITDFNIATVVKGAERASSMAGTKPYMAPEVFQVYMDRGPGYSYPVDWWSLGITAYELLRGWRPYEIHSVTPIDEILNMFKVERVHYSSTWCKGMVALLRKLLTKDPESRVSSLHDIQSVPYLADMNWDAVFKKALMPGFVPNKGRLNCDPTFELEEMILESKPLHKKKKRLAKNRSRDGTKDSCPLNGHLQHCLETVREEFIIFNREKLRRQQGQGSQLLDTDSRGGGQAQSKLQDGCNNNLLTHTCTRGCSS
T14 sequence (Q9P1W9 whole entry): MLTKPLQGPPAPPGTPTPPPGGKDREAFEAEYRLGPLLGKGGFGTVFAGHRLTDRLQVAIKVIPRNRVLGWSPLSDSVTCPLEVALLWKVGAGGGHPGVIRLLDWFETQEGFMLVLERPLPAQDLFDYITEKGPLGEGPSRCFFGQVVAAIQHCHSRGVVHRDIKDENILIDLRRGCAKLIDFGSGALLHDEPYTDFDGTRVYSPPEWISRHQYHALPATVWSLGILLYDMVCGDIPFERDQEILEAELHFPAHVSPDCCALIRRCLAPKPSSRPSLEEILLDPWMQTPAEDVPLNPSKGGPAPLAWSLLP
T24 sequence (Q9NWZ3 whole entry): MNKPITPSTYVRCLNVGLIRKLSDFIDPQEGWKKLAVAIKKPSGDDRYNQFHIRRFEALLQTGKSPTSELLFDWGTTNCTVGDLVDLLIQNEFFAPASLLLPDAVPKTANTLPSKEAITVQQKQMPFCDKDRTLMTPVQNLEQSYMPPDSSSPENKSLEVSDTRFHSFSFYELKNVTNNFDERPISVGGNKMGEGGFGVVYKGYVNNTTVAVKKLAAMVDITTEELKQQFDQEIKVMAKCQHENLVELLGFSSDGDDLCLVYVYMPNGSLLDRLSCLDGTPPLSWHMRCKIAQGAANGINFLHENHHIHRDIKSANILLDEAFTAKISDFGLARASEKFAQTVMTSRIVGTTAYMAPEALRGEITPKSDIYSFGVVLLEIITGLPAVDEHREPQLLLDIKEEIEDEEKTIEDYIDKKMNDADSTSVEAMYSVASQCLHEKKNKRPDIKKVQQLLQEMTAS
T23 sequence (P19525 whole entry): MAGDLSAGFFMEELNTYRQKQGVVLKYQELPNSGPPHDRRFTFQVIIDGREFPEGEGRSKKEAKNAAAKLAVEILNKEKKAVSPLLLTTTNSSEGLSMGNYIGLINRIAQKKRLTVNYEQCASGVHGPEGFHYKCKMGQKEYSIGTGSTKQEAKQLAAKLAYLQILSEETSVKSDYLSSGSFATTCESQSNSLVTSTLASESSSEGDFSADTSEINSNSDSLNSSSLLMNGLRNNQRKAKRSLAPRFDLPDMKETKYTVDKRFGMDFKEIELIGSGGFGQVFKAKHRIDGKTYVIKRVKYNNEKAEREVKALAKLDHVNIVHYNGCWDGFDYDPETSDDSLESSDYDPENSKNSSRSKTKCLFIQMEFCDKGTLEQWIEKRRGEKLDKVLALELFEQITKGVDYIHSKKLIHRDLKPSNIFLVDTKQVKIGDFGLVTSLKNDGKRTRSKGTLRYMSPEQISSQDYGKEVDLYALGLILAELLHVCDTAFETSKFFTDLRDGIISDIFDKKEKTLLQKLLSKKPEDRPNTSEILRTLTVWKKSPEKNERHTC
T18 sequence (Q86Y07 whole entry): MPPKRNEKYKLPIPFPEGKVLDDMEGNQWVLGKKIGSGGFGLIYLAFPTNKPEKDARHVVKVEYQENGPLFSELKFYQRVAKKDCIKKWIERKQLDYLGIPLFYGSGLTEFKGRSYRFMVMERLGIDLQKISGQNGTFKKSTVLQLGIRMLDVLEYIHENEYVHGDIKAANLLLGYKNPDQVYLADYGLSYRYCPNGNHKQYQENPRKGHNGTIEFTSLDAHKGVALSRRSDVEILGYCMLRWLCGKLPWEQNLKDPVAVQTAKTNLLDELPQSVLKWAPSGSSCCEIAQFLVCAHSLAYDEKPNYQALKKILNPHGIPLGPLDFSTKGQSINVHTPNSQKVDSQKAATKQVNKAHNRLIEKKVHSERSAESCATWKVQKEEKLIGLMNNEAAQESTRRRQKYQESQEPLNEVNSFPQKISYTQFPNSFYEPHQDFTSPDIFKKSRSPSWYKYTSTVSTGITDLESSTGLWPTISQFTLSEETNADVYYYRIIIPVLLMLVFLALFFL
T42 sequence (P11362 22-822): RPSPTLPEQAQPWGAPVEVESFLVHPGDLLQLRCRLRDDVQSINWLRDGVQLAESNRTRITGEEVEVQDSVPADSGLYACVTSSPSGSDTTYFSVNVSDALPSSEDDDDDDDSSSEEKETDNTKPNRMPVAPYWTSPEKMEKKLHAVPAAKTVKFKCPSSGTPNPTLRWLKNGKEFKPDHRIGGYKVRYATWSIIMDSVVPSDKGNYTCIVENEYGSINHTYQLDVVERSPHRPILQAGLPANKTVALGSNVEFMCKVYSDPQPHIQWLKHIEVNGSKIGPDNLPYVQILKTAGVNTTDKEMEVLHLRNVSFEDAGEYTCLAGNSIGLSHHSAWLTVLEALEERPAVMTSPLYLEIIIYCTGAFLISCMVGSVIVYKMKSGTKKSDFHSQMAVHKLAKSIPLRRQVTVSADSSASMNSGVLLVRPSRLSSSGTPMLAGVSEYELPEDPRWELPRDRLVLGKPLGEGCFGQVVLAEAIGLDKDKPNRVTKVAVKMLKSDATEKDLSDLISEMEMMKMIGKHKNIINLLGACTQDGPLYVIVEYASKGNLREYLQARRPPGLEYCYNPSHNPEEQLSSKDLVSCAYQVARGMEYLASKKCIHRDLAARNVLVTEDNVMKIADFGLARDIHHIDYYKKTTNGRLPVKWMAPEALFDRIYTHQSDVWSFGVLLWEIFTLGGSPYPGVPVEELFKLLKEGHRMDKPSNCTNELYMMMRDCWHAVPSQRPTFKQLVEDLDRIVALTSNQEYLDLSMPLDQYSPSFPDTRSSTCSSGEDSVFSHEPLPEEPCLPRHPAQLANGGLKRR
T9 sequence (Q13153 whole entry): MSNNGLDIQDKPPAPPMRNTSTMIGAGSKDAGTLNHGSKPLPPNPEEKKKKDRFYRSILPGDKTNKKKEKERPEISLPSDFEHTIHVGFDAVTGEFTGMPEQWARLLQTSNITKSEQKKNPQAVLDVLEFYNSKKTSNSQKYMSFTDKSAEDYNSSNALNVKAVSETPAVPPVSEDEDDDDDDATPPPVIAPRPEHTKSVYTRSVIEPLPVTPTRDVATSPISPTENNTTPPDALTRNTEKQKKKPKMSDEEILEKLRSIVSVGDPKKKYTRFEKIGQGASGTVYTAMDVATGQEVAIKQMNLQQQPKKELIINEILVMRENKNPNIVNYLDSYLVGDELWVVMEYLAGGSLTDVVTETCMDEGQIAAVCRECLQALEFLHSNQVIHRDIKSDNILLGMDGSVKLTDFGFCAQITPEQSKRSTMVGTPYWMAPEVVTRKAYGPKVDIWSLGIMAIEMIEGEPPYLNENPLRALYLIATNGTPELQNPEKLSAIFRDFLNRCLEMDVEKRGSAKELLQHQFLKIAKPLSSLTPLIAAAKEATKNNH
T28 sequence (P11802 whole entry): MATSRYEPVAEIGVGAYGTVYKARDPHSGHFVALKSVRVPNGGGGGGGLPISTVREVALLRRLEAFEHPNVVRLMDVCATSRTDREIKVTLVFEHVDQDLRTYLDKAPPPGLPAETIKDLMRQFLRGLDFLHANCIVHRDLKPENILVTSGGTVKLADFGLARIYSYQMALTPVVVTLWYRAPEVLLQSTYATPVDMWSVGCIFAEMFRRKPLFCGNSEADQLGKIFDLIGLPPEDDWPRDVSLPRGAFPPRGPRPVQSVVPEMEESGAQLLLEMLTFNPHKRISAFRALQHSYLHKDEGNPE

Work on Brc1ccc2nccc(Nc3ccc4cn[nH]c4c3)c2c1 [Compound 35, 6-Bromo-N-(1H-indazol-6-yl)quinolin-4-amine] yielded an activity at 1 µM (IRAK3) of 100%, an activity at 1 µM (CAMKK2) of 100% and an activity at 1 µM (IKK-epsilon) of 95%. The activity at 1 µM (DRAK1) was 100%, the activity at 1 µM (PAK4) was 100% and the activity at 1 µM (KIT) was 100%. It also gave an activity at 1 µM (PIK3CA(E542K)) of 100%, an activity at 1 µM (CLK2) of 86% and an activity at 1 µM (PAK1) of 85%. For the same compound, the activity at 1 µM (ROCK2) was 91%, the activity at 1 µM (PDGFRA) was 100% and the activity at 1 µM (PFTK1) was 69%. It also gave an activity at 1 µM (NDR1) of 69%, an activity at 1 µM (PIM2) of 100% and an activity at 1 µM (NIK) of 100%. It also gave an activity at 1 µM (JNK3) of 100%, an activity at 1 µM (NEK9) of 100% and an activity at 1 µM (VRK2) of 100%. The activity at 1 µM (BMX) was 100%, the activity at 1 µM (CHEK1) was 100% and the activity at 1 µM (MET(Y1235D)) was 100%. The activity at 1 µM (PRKD2) was 90%, the activity at 1 µM (PRKR) was 100% and the activity at 1 µM (IRAK4) was 100%. For the same compound, the activity at 1 µM [1] was 100%, the activity at 1 µM (YANK2) was 100% and the activity at 1 µM [2] was 100%. The activity at 1 µM (CDK4) was 78%, the activity at 1 µM (PIK3CA(E545A)) was 98% and the activity at 1 µM (ABL2) was 88%. The activity at 1 µM (TSSK1B) was 100%, the activity at 1 µM (YANK1) was 100% and the activity at 1 µM (MEK3) was 86%. The activity at 1 µM (ALK(C1156Y)) was 64%, the activity at 1 µM (CAMK2G) was 100% and the activity at 1 µM (HIPK4) was 57%. It also gave an activity at 1 µM (CLK4) of 100%, an activity at 1 µM (TLK1) of 95% and an activity at 1 µM (KIT(D816V)) of 100%. The activity at 1 µM (BMPR2) was 100%, the activity at 1 µM (CSNK1G1) was 100% and the activity at 1 µM (FGFR1) was 100%.

Reference: paper PMC6891286, “Towards the Development of an In vivo Chemical Probe for Cyclin G Associated Kinase (GAK)” (Molecules, 2019)
